Test results published in publication PMC4525181, “Structural and dynamic insights into the energetics of activation loop rearrangement in FGFR1 kinase” (Nature Communications, 2015).
“And” between values parts separate entries of the source, which are not always exact repeats. Identical values can stand only once. Like-named read-outs stand apart in the source and are kept apart here.

Legend:
N550K mutation in FGFR2 = conditions: N550K mutant relative to wild-type, BaF3 cells; cited from earlier work
FGFR1 kinase domain [1] = molecular target: T1, FGFR1 kinase domain (Homo sapiens, UniProt P11362, C488A/C584S); assay: Isothermal titration calorimetry (ITC) of inhibitors binding to FGFR1; conditions: for heat capacity change ΔCp: ITC titrations at 10-35 °C, slope of ΔH vs T; for -TΔS (ITC) / N (ITC stoichiometry) / ΔG (ITC) / ΔH (ITC): 298.15 K
T1 construct: Human FGFR1 consisting of residues Ala458-Glu765; made in house; host or cells: Escherichia coli, co-expressed with PTP1B
Experimental: ITC experiments were carried out using an ITC200 instrument (Microcal Inc., GE Healthcare)[59]. Final ligand concentrations were achieved by diluting ligand stock solutions in DMSO 1:50 (v/v) in the experimental buffer, resulting in a final DMSO concentration of 2% (v/v). Protein concentration was determined by measuring the absorbance at 280 nm. DMSO concentration in the protein solution was adjusted to 2% (v/v). ITC measurements were routinely performed at 25 °C in 20 mM Tris, pH 7.8, 20 mM NaCl, 2 mM TCEP and 2% DMSO (v/v). The titrations were performed on 10−20 μM FGFR1 in the 200 μl sample cell using 2 μl injections of 0.1−0.2 mM ligand solution every 120 s. To correct for heats of dilution and mixing, the final baseline consisting of small peaks of identical size at the end of the experiment was subtracted. Representative ITC titrations are shown in Supplementary Fig. 2. To determine the heat capacity ΔCp of ligands binding to FGFR1, ITC titrations were performed as described above at 10, 15, 20, 25, 30 and 35 °C. Binding enthalpies derived from ITC experiments were plotted as ΔH against T and ΔCp are given by the slope of the linear regression analysis according to equation (3) (Supplementary Fig. 7): […]

FGFR1 Asp623Ala mutant = molecular target: T2, FGFR1 Asp623Ala mutant (Homo sapiens, UniProt P11362, C488A/C584S/D623A); assay: SPR binding to Asp623Ala mutant of FGFR1 kinase domain; conditions: data not shown
T2 construct: a construct spanning residues Ala458 to Glu765 of human FGFR1; made in house; host or cells: Escherichia coli
Text: For our studies of the FGFR1 kinase domain, we have used a construct spanning residues Ala458 to Glu765 of human FGFR1 that contains two mutations (Cys488Ala and Cys584Ser) designed to stabilize the enzyme against covalent aggregation. The protein is non-phosphorylated after co-expression with PTP1B and purification from Escherichia coli. An additional mutation of the catalytic aspartate (Asp623Ala) was introduced for NMR studies to increase further the yield of stable isotope-labelled protein. […] In addition, we have confirmed using surface plasmon resonance (SPR) that binding parameters for a close analogue of the canonical FGFR1 inhibitor PD173074 (ref. [23]; henceforth referred to as PDA; Fig. 1a; Supplementary Fig. 1) are unaltered for the Asp623Ala mutant relative to the kinase-active form (data not shown).

FGFR1 kinase domain [2] = molecular target: T1, FGFR1 kinase domain; assay: SPR thermodynamic analysis (non-linear van't Hoff); format: binding; conditions: T0=298 K, SPR temperature dependence
Experimental: (§1) Binding affinities (KD) were therefore determined from dosage experiments and binding responses at equilibrium were fit to a 1:1 steady-state affinity model available within the Scrubber 2 software (BioLogic Software Ltd., Campbell, Australia).
(§2) Transition state thermodynamic quantities were determined from the kinetic association (kon) and dissociation (koff) rate constants as previously described[64] by plotting ln (kh/kBT) versus 1/T according to the linear Eyring equation (2).

FGFR1 kinase domain [3] = molecular target: T1, FGFR1 kinase domain; assay: Transition state thermodynamics from linear Eyring plots (SPR rate constants vs temperature); format: binding; conditions: Eyring analysis
Experimental: as §1, §2
Here k is either the association rate constant (kon) or the dissociation rate constant (koff). ΔH and ΔS are the changes in […] enthalpy and entropy of binding, respectively, while the superscript ‘*' denotes that these refer to a transition state.

FGFR1 kinase domain [4] = molecular target: T1, FGFR1 kinase domain; assay: SPR kinetic analysis of inhibitors binding to FGFR1 kinase domain
Experimental: The hexa-histidine tag was cleaved from protein by overnight treatment with TEV protease and concomitant dialysis, immediately after the IMAC step. Purified protein in a buffer comprising 20 mM Tris-HCl, pH 8.0, 20 mM NaCl, 2 mM TCEP, was snap frozen in liquid nitrogen and stored at −80 °C. For NMR studies, an additional mutation (Asp623Ala) was introduced to improve the yield of stable isotope-labelled FGFR1 kinase protein[22]. Uniform isotopic labelling was achieved by growing E. coli BL21 (DE3) Star cells in D2O-based M9 minimal medium supplemented with ^15NH4Cl (Cambridge Isotope Laboratories or Sigma Aldrich) together with U-[^1H,^13C]- or (for fully deuterated samples) U-[^2H,^13C]-glucose (Cambridge Isotope Laboratories or Sigma Aldrich) as sole nitrogen and carbon sources, respectively. Purification was by IMAC and ion exchange chromatography; the 6 × His tag was not cleaved from the protein used for NMR. Human Abl consisting of residues Ser248-Val534 with an engineered TEV-cleavable N-terminal 6 × His tag and mutation Asn355Ser was expressed and purified as described[50] with minor modifications. For biophysical studies, the 6 × His tag was retained intact for both kinases as it was used for immobilization on a nitrilotriacetic acid (NTA) sensor chip.
Non-phosphorylated, histidine-tagged FGFR1 and non-phosphorylated, histidine-tagged Abl were immobilized as the ligand onto NTA sensor chips using a capture coupling method. The NTA surface was first activated with 500 μM NiSO4 in immobilization buffer. The carboxymethyl dextran surface was then activated with a 1:1 ratio of 0.4 M EDC and 0.1 M NHS. Hexa-histidine-tagged protein was diluted into immobilization buffer to a concentration of 30 μg ml^−1, and immobilized onto the surface with a 7-min injection. Remaining activated groups were blocked with 0.1 M Tris, pH 8.0. […] PBS, pH 7.4, 50 μM EDTA and 0.05% Surfactant P20 (v/v) (for Abl supplemented with 10% glycerol (v/v)) were used as immobilization buffer. […] SPR experiments were performed using the Biacore 3000, Biacore S51 and Biacore T200 biosensors (GE Healthcare), with NTA and series S NTA sensor chips (GE Healthcare). All FGFR1 binding experiments were done using PBS (pH range 7.0–7.4), 50 μM EDTA, 0.05% Surfactant P20 (v/v) and 1% DMSO (v/v) or 50 mM Bis-Tris (pH range 5.5–6.5), 100 mM NaCl, 50 μM EDTA, 0.05% Surfactant P20 (v/v) and 1% DMSO (v/v), as running buffer. All Abl binding experiments were conducted using PBS, pH 7.4, 50 μM EDTA, 0.05% Surfactant P20 (v/v), 10% glycerol (v/v) and 1% DMSO (v/v) as running buffer. […] Finally, they were diluted 1:100 (v/v) in running buffer without DMSO to achieve the target concentration resulting in a final DMSO concentration of 1% (v/v).
The highest compound concentration varied, but for all analytes five sequential injections with constant injection time and a constant dilution factor were done. All analyte concentrations were injected in one cycle, one after the other for 120 s with a short dissociation phase in between injections (∼60 s) and with a longer dissociation phase at the end of the cycle (1,000 to 20,000 s that varied depending on the expected dissociation rate constant of the analyte). Zero-buffer blank injections were included for referencing. Biacore T200 evaluation software and BIAevaluation 4.1 software, respectively, were used for processing and analysing data. Rate constants were calculated globally from the obtained sensorgram data by fitting to a 1:1 interaction model. Representative sensorgrams are shown in Supplementary Fig. 6. Multi-cycle kinetic analysis was carried out as previously described. Binding affinities (KD) were calculated from the equation KD=koff/kon.

Asp641 = Asp641 (UniProt position 641, VMKIADFGLAR); assay: kinetics (surface plasmon resonance); conditions: 298 K; PBS (pH 7.0-7.4) or 100 mM NaCl with 50 mM Bis-Tris (pH 5.5-6.5); PBS (pH 7.0-7.4) or 50 mM Bis-Tris (pH 5.5-6.5) with 100 mM NaCl. Both contain 50 µM EDTA, 0.05% Surfactant P20 and 1% DMSO.; Non-phosphorylated, initially ligand-free FGFR1 kinase domain immobilised on an NTA chip. The rate reports on the DFG-in to DFG-out transition required for ponatinib binding.

T1 sequence (P11362 458-765 C488A/C584S): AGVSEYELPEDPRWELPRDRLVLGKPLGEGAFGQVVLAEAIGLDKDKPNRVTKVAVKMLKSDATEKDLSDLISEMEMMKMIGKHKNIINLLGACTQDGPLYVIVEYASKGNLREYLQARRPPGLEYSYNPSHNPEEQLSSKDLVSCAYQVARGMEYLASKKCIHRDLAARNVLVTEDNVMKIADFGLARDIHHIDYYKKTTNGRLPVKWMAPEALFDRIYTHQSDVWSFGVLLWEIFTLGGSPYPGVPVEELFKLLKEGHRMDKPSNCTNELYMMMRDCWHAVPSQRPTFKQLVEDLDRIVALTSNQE
T2 sequence (P11362 458-765 C488A/C584S/D623A): as the sequence (P11362 458-765 C488A/C584S) above, with D166A counted along it

Row | heat capacity change ΔCp (FGFR1 kinase domain [1]) | -TΔS (ITC) (FGFR1 kinase domain [1]; ITC) | N (ITC stoichiometry) (FGFR1 kinase domain [1]; ITC) | ΔG (ITC) (FGFR1 kinase domain [1]; ITC) | ΔG0 van't Hoff (FGFR1 kinase domain [2]) | −TΔS0 van't Hoff (FGFR1 kinase domain [2]) | Molecule | effect of FGFR2 N550K mutation on inhibitor potency (N550K mutation in FGFR2) | ΔH (ITC) (FGFR1 kinase domain [1]; ITC) | ΔH0 van't Hoff (FGFR1 kinase domain [2]) | further results
1 | – | – | – | – | – | – | CCN(CC)CCCCNc1ncc2cc(-c3cc(OC)cc(OC)c3)c(NC(=O)NC(C)(C)C)nc2n1 [PD173074] | confers resistance | – | – | –
2 | -359 cal mol^−1 K^−1 | 4.6 ± 0 kJ/mol | 0.8±0.02 | -46 ± 0 kJ/mol | -46.4 ± 0.084 kJ/mol | 1.7 ± 3.3 kJ/mol | CCN(CC)CCCNc1ncc2cc(-c3cc(OC)cc(OC)c3)c(NC(=O)NC(C)(C)C)nc2n1 [PDA] | – | -50.6 kJ/mol and -50.6 ± 7.53 kJ/mol | -48.1 kJ/mol and -48.1 ± 3.3 kJ/mol | Kd (FGFR1 kinase domain [1]; ITC, 298 K): 8.8 nM; binding parameters for Asp623Ala mutant relative to the kinase-active form (FGFR1 Asp623Ala mutant): unaltered; ΔG# ass (transition state free-energy barrier, association) (FGFR1 kinase domain [3]; association phase): 36.4 ± 7.53 kJ/mol and 36.4 kJ/mol; ΔH# ass (transition state enthalpy, association) (FGFR1 kinase domain [3]; association phase): 69.5 ± 5.44 kJ/mol and 69.5 kJ/mol; −TΔS# ass (transition state entropy, association) (FGFR1 kinase domain [3]; association phase): -33.1 ± 5.44 kJ/mol and -33.1 kJ/mol; -TΔS# diss (FGFR1 kinase domain [3]; dissociation phase): -22.2 ± 7.53 kJ/mol; ΔG# diss (FGFR1 kinase domain [3]; dissociation phase): 81.6 ± 10.9 kJ/mol; ΔH# diss (FGFR1 kinase domain [3]; dissociation phase): 104 ± 7.53 kJ/mol; KD, fold weaker in the presence of 1.2 M GdmCl (FGFR1 kinase domain [4]; 1.2 M GdmCl vs absence of GdmCl): ~2 fold; association rate constant as a function of pH (FGFR1 kinase domain [4]; SPR 298 K, pH decreased from 7.4 to 5.5): no dependence on pH; kon (FGFR1 kinase domain [4]; SPR, 1.2 M GdmCl in PBS running buffer, read-out: association rate constant kon in the presence of 1.2 M GdmCl): 680000 M⁻¹ s⁻¹; koff (FGFR1 kinase domain [4]; SPR, 1.2 M GdmCl in PBS running buffer, read-out: dissociation rate constant koff in the presence of 1.2 M GdmCl): 0.0018 s⁻¹; Kd (FGFR1 kinase domain [4]; SPR, 298 K, pH 7.4, read-out: KD (koff/kon)): 5.7 nM; kon (FGFR1 kinase domain [4]; SPR, 298 K, pH 7.4, read-out: association rate constant kon): 1.6e+06 M⁻¹ s⁻¹; koff (FGFR1 kinase domain [4]; SPR, 298 K, pH 7.4, read-out: dissociation rate constant koff): 0.0092 s⁻¹
3 | – | – | – | – | – | – | Cc1ccc(C(=O)Nc2ccc(CN3CCN(C)CC3)c(C(F)(F)F)c2)cc1C#Cc1cnc2cccnn12 [ponatinib] | enhanced inhibitory potency against this mutant relative to wild-type | – | – | –
4 | – | – | – | – | – | – | Fibroblast growth factor receptor 1 (FGFR1) kinase domain (Homo sapiens; C488A;C584S) | – | – | – | pKa (Asp641): 6.25
5 | -172 cal mol^−1 K^−1 | 11.3 ± 0.84 kJ/mol | 1.0±0.04 | -40.6 ± 0.42 kJ/mol | -39.7 ± 0.084 kJ/mol | 20.1 ± 3.3 kJ/mol | SU5402 | – | -51.9 kJ/mol and -51.9 ± 0.84 kJ/mol | -59.4 kJ/mol and -59.4 ± 3.3 kJ/mol | –
